Data as given in ChEMBL document CHEMBL3992519 (J Med Chem, 2017).

Key:
[1] = target: T1, Orexin/Hypocretin receptor type 1 (Homo sapiens, UniProt O43613); test: Antagonist activity at human OX1R expressed in CHOK1 cells assessed as inhibition of orexin A-induced intracellular calcium level preincubated for 15 mins followed by orexin A addition by Fura-2-AM dye based fluorescence assay
T1 sequence (O43613 whole entry): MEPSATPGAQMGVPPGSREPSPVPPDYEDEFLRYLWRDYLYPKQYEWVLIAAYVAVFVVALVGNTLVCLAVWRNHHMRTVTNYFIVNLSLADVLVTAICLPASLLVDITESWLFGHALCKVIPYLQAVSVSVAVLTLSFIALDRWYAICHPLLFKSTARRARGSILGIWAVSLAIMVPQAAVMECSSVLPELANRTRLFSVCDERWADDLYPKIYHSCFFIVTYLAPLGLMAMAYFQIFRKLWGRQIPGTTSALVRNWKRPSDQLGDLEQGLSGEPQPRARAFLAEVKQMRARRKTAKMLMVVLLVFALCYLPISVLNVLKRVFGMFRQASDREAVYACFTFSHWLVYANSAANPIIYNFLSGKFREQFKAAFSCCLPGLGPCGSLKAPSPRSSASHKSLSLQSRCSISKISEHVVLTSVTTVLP

[2] = Solubility of the compound in water; assay type: physicochemical; conditions: buffer
[3] = Selectivity index, ratio of IC50 for human OX2R expressed in CHOK1 cells to IC50 for human OX1R expressed in CHOK1 cells
[4] = Solubility of the compound in saline; assay type: physicochemical; conditions: buffer

| SMILES | Ki [1] | solubility [2] | Ratio IC50 [3] | solubility [4] |
| --- | --- | --- | --- | --- |
| CN(C)c1ccc(S(=O)(=O)N2CC[C@]34c5c6ccc(O)c5O[C@H]3[C@H](N(C)C(=O)/C=C/c3ccoc3)CC[C@@]4(O)[C@H]2C6)cc1 | 320 nM |  |  |  |
| COc1ccc2c3c1O[C@H]1[C@H](N(C)C(=O)/C=C/c4ccoc4)CC[C@@]4(O)[C@@H](C2)N(S(=O)(=O)c2cccc(F)c2)CC[C@]314 | 7.6 nM | Insoluble | <88.4 | Insoluble |
| COc1ccc2c3c1O[C@H]1[C@H](N(C)C(=O)/C=C/c4ccoc4)CC[C@@]4(O)[C@@H](C2)N(S(=O)(=O)c2cccc([N+](=O)[O-])c2)CC[C@]314 | 5.05 nM | Insoluble | <88.4 | Insoluble |
| COc1ccc2c3c1O[C@H]1[C@H](N(C)C(=O)/C=C/c4ccoc4)CC[C@@]4(O)[C@@H](C2)N(S(=O)(=O)c2ccc([N+](=O)[O-])cc2)CC[C@]314 | 12.5 nM | Insoluble | <88.4 | Insoluble |
| COc1ccc2c3c1O[C@H]1[C@H](N(C)C(=O)/C=C/c4ccoc4)CC[C@@]4(O)[C@@H](C2)N(S(=O)(=O)c2ccccc2C(F)(F)F)CC[C@]314 | 2.05 nM | Insoluble | <88.4 | Insoluble |
| COc1ccc2c3c1O[C@H]1[C@H](N(C)C(=O)/C=C/c4ccoc4)CC[C@@]4(O)[C@@H](C2)N(S(=O)(=O)c2cccc(C)c2)CC[C@]314 | 2.98 nM | Insoluble | <88.4 | Insoluble |
| CN(C(=O)/C=C/c1ccccc1)[C@@H]1CC[C@@]2(O)[C@H]3Cc4ccc(O)c5c4[C@@]2(CCN3CC2CC2)[C@H]1O5.Cl | 389 nM | Insoluble | <88.4 | Insoluble |
| CN(Cc1ccccc1)[C@@H]1CC[C@@]2(O)[C@H]3Cc4ccc(O)c5c4[C@@]2(CCN3CC2CC2)[C@H]1O5.Cl |  | Insoluble | <88.4 | Insoluble |
| COc1ccc2c3c1O[C@H]1[C@H](N(C)C(=O)/C=C/c4ccoc4)CC[C@@]4(O)[C@@H](C2)N(S(=O)(=O)c2ccccc2Cl)CC[C@]314 | 1.93 nM | Insoluble | <88.4 | Insoluble |
| COc1ccc2c3c1O[C@H]1[C@H](N(C)C(=O)/C=C/c4ccoc4)CC[C@@]4(O)[C@@H](C2)N(S(=O)(=O)C2CC2)CC[C@]314 | 12.1 nM | Insoluble | <88.4 | Insoluble |
| COc1ccc2c3c1O[C@H]1[C@H](N(C)C(=O)/C=C/c4ccoc4)CC[C@@]4(O)[C@@H](C2)N(S(=O)(=O)c2ccc(C(F)(F)F)cc2)CC[C@]314 | 12.6 nM | Insoluble | <88.4 | Insoluble |
| COc1ccc2c3c1O[C@H]1[C@H](N(C)C(=O)/C=C/c4ccoc4)CC[C@@]4(O)[C@@H](C2)N(C(C)=O)CC[C@]314 | 541 nM | Insoluble | <88.4 | Insoluble |
| COc1ccc2c3c1O[C@H]1[C@H](N(C)C(=O)/C=C/c4ccoc4)CC[C@@]4(O)[C@@H](C2)N(S(=O)(=O)c2ccccc2F)CC[C@]314 | 2.07 nM | Insoluble | <88.4 | Insoluble |
| COc1ccc2c3c1O[C@H]1[C@H](N(C)C(=O)/C=C/c4ccoc4)CC[C@@]4(O)[C@@H](C2)N(S(=O)(=O)c2ccccc2C#N)CC[C@]314 | 1.96 nM | Insoluble | <88.4 | Insoluble |
| COc1ccc2c3c1O[C@H]1[C@H](N(C)C(=O)/C=C/c4cccnc4)CC[C@@]4(O)[C@@H](C2)N(S(=O)(=O)c2ccccc2N(C)C)CC[C@]314 | 42.3 nM |  |  |  |
| CN(C(=O)/C=C/c1ccco1)[C@@H]1CC[C@@]2(O)[C@H]3Cc4ccc(O)c5c4[C@@]2(CCN3CC2CC2)[C@H]1O5 | 751 nM | Insoluble | <88.4 | Insoluble |
| COc1ccc2c3c1O[C@H]1[C@H](N(C)C(=O)/C=C/c4ccoc4)CC[C@@]4(O)[C@@H](C2)N(S(=O)(=O)c2ccc(F)cc2)CC[C@]314 | 4.05 nM | Insoluble | <88.4 | Insoluble |

| SMILES | Ki [1] | solubility [2] | Ratio IC50 [3] | solubility [4] |
| --- | --- | --- | --- | --- |
| COc1ccc2c3c1O[C@H]1[C@H](N(C)C(=O)/C=C/c4ccoc4)CC[C@@]4(O)[C@@H](C2)N(S(=O)(=O)c2ccccc2N(C)C)CC[C@]314.Cl | 1.92 nM | Insoluble | <88.4 | Insoluble |
| CCCCS(=O)(=O)N1CC[C@]23c4c5ccc(OC)c4O[C@H]2[C@H](N(C)C(=O)/C=C/c2ccoc2)CC[C@@]3(O)[C@H]1C5 | 5.94 nM | Insoluble | <88.4 | Insoluble |
| COc1ccccc1S(=O)(=O)N1CC[C@]23c4c5ccc(OC)c4O[C@H]2[C@H](N(C)C(=O)/C=C/c2ccoc2)CC[C@@]3(O)[C@H]1C5 | 6.37 nM | Insoluble | <88.4 | Insoluble |
| COc1cccc(S(=O)(=O)N2CC[C@]34c5c6ccc(OC)c5O[C@H]3[C@H](N(C)C(=O)/C=C/c3ccoc3)CC[C@@]4(O)[C@H]2C6)c1 | 2.44 nM | Insoluble | <88.4 | Insoluble |
| COc1ccc2c3c1O[C@H]1[C@H](N(C)C(=O)/C=C/c4ccccn4)CC[C@@]4(O)[C@@H](C2)N(S(=O)(=O)c2ccccc2N(C)C)CC[C@]314 | 1.36 nM |  |  |  |
| COc1ccc2c3c1O[C@H]1[C@H](N(C)C(=O)/C=C/c4ccoc4)CC[C@@]4(O)[C@@H](C2)N(S(=O)(=O)c2ccccc2C)CC[C@]314 | 1.7 nM | Insoluble | <88.4 | Insoluble |
| COc1ccc2c3c1O[C@H]1[C@H](N(C)C(=O)/C=C/c4ccoc4)CC[C@@]4(O)[C@@H](C2)N(S(=O)(=O)c2c(C)cc(C)cc2C)CC[C@]314 | 4.16 nM | Insoluble | <88.4 | Insoluble |
| COc1ccc2c3c1O[C@H]1[C@H](N(C)C(=O)/C=C/c4ccoc4)CC[C@@]4(O)[C@@H](C2)N(S(=O)(=O)c2cccc(Cl)c2)CC[C@]314 | 3.47 nM | Insoluble | <88.4 | Insoluble |
| COc1ccc2c3c1O[C@H]1[C@H](N(C)C(=O)/C=C/c4ccoc4)CC[C@@]4(O)[C@@H](C2)N(S(=O)(=O)c2cccc(N(C)C)c2)CC[C@]314.Cl | 7.25 nM | Insoluble | <88.4 | Insoluble |
| COc1ccc2c3c1O[C@H]1[C@H](N(C)C(=O)/C=C/c4ccoc4)CC[C@@]4(O)[C@@H](C2)N(S(=O)(=O)c2ccc(C)cc2)CC[C@]314 | 5.85 nM | Insoluble | <88.4 | Insoluble |
| COc1ccc2c3c1O[C@H]1[C@H](N(C)C(=O)/C=C/c4ccoc4)CC[C@@]4(O)[C@@H](C2)N(S(=O)(=O)c2cccc(Br)c2)CC[C@]314 | 2.27 nM | Insoluble | <88.4 | Insoluble |
| COc1ccc2c3c1O[C@H]1[C@H](N(C)C(=O)/C=C/c4ccoc4)CC[C@@]4(O)[C@@H](C2)N(S(=O)(=O)c2ccc(C#N)cc2)CC[C@]314 | 13.9 nM | Insoluble | <88.4 | Insoluble |
| COc1ccc2c3c1O[C@H]1[C@H](N(C)C(=O)/C=C/c4ccoc4)CC[C@@]4(O)[C@@H](C2)N(S(=O)(=O)c2ccccc2Br)CC[C@]314 | 2.1 nM | Insoluble | <88.4 | Insoluble |
| COc1ccc(S(=O)(=O)N2CC[C@]34c5c6ccc(OC)c5O[C@H]3[C@H](N(C)C(=O)/C=C/c3ccoc3)CC[C@@]4(O)[C@H]2C6)cc1 | 8.99 nM | Insoluble | <88.4 | Insoluble |
| COc1ccc2c3c1O[C@H]1[C@H](N(C)C(=O)/C=C/c4ccoc4)CC[C@@]4(O)[C@@H](C2)N(S(=O)(=O)c2cccc(C#N)c2)CC[C@]314 | 7.3 nM | Insoluble | <88.4 | Insoluble |
| COc1ccc2c3c1O[C@H]1[C@H](N(C)C(=O)/C=C/c4ccoc4)CC[C@@]4(O)[C@@H](C2)N(S(=O)(=O)c2cccc(C(F)(F)F)c2)CC[C@]314 | 6.19 nM | Insoluble | <88.4 | Insoluble |
| COc1ccc2c3c1O[C@H]1[C@H](N(C)C(=O)/C=C/c4ccoc4)CC[C@@]4(O)[C@@H](C2)N(S(=O)(=O)c2ccc(Br)cc2)CC[C@]314 | 6.21 nM | Insoluble | <88.4 | Insoluble |
